Article PMC12177912, “A Geranylated Natural Product Simamycin Disrupts the Allosteric Catalysis of tRNA-2-selenouridine Synthase SelU” (Biochemistry, 2025)

Molecular target: T1, tRNA-2-selenouridine synthase (SelU, MnmH) (Escherichia coli, UniProt Q0TKD8)
T1 construct: M1-A172 (N-terminal rhodanese domain; tags removed with TEV)
Experiment: intrinsic tryptophan fluorescence quenching titration (Kd at […] °C; […] at […] °C, […] at […] °C, […] at […] °C); STD NMR
Assay type: binding

T1 sequence (Q0TKD8 1-172): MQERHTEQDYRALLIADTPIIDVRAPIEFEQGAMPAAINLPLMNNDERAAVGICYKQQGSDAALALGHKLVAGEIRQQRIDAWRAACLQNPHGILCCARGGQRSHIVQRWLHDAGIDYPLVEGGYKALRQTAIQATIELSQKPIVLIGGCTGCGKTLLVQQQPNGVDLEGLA

Which Kd does the source give for `CC(C)=CCC/C(C)=C/COC[C@H]1O[C@@H](n2ccc(=O)[nH]c2=O)[C@H](O)[C@@H]1O` [simamycin] here?
Its Kd is 29.9 µM.
